Data from a melting point compilation (Tetko et al.; mined from patent text by program, amines drawn as free bases though some values may be those of a salt).

SMILES | melting point
Cc1ccccc1C1(O)C=C(C(C)(C)C)C(=O)C(C(C)(C)C)=C1 | 168 to 171 °C
CC(C)c1c(C(=O)Nc2ccccc2)c(-c2ccccc2)c(-c2ccc(F)cc2)n1CC[C@H]1C[C@H](O)CC(=O)O1 (relative stereo) | 90 to 97 °C
CC(C)CCCC(C)C1CCC2C3CC=C4CCCCC4(C)C3CCC12C (configuration not stated) | 90 to 92 °C
CN1C(=O)c2c(n3ccnc3c3c2c2cccnc2n3C2OC(CO)C(O)C(O)C2O)C1=O (configuration not stated) | 298 °C
O=C1c2ccccc2C(=O)N1OCCCN1CCN(c2nsc3ccccc23)CC1 | 143 to 144 °C
Fc1ccc2[nH]cc(C3=CCN(CC4COc5ccc6[nH]ccc6c5O4)CC3)c2c1 (configuration not stated) | 112 °C
Cc1ccc2[nH]c(-c3ccccc3O)cc2c1 | 211 to 215 °C
CCOC(CNN)OCC | 126 to 127 °C
Cc1ccc2oc(-c3ccc(C=Cc4ccc(C(=O)O)cc4)cc3)cc2c1 | 355 to 358 °C
CC(=O)OC1CCc2cc3ccccc3n2C1 (configuration not stated) | 90 to 95 °C
COCC(COC)Nc1c(C)nn2c(-c3ccc(Cl)cc3Cl)cccc12 | 86.9 to 90 °C
O=Cc1ccc(-c2ccc(-c3ccc(C=O)o3)cn2)cc1 | 204 to 206 °C
COC(=O)CC(=O)Nc1cccc(S)c1 | 52 to 54 °C
O=C(Nc1ccccc1)OCC1(COC(=O)Nc2ccccc2)CS(=O)(=O)c2ccccc2C1=O | 72 to 78 °C
C=C1SC(=O)N(c2ccc3cc(-c4ccc(O)c(C56CC7CC(CC(C7)C5)C6)c4)ccc3c2)C1=O | 299 to 302 °C
Cc1nnc2n1-c1ccc([N+](=O)[O-])cc1C(c1ccccc1Cl)=CC2 | 225 to 227 °C

SMILES | melting point
CN1Cc2ccccc2[C@H]2c3cccc4[nH]cc(c34)C[C@@H]21 (relative stereo) | 215 °C
Cc1ccc2c(=O)nc(-c3ccccn3)sc2c1 | 225 °C
CCC(=O)Nc1cc(-c2sc(C(C)O)nc2-c2cccc(C)c2)ccn1 (configuration not stated) | 115 to 116 °C
CC(C)=NOCc1nc2c(N)nc(C)c(C)c2n1CCCCNS(C)(=O)=O | 157 to 159 °C
NS(=O)(=O)CS(=O)(=O)c1ccc(S(=O)(=O)CCCO)cc1 | 200 °C
CCCN1CC(Nc2ccc3c(c2)CCO3)CC2c3cccc4c3c(cn4C)CC21 (configuration not stated) | 137 to 138 °C
N#CC(C(=O)c1ccc(-c2ccc(Cl)cc2)cc1)=C1CCCCN1 | 134 °C
Cc1cc(CO)nc2cc3c(cc12)OC(C)(C)[C@H](O)[C@H]3NCCc1ccc(F)cc1 (relative stereo) | 147 to 152 °C
COc1ccc(C2=NN(C3CCN(CCCCCCN4C(=O)c5ccccc5C4=O)CC3)C(=O)[C@@H]3CC=CC[C@H]23)cc1OC | 39 to 44 °C
C#CCN(c1ccc(C(=O)NCc2cccc(C#N)c2)cc1)C1CCc2cc3nc(C)[nH]c(=O)c3cc21 (racemic) | 260 °C
COC(=O)c1c(-c2cc(OC)c(OC)c(OC)c2)c2cc(OC)c(CC#N)cc2c(=O)n1-c1ccc(NC(=O)OC(C)(C)C)cc1 | 136 to 138 °C
ClC1=Nc2ccccc2Cn2cccc21 | 102 to 104 °C
COCCC(=O)C1(N)C=CC(N(C)C(C)=O)=C(C#N)C1 (configuration not stated) | 143 to 145 °C
OCCN(CCO)Cc1nnc2n1-c1ccc(Cl)cc1C(c1ccccc1)=NC2 | 84 to 87 °C
CC(=O)COc1cc(N2C(=O)c3ccccc3C2=O)ccc1N1C(=O)c2ccccc2C1=O | 300 °C

Other lines, results leading:

melting point | SMILES
70 °C | CC1CCCN(CC(O)c2ccccc2)C1 (configuration not stated)
217 to 220 °C | c1csc(-c2nc3ccc(N4CCNCC4)nn3c2-c2ccncc2)c1
205 °C | CCCNC(=O)Nc1ccc(C(=O)c2ncc3ccccn23)cc1C(=O)OC
119 to 121 °C | Cc1c(NC(=O)CC(C)(C)C)cc2c(c1C)OC(C)(C)C2(O)c1ccc(C(C)C)cc1 (configuration not stated)
167 to 169 °C | Cc1c(Cl)c(F)cc(C(=O)O)c1Cl
203 °C | COC(=O)C1=C(C)NC(N)=C(C(=O)OC(C)C)C1c1ccccc1[N+](=O)[O-] (configuration not stated)
166 °C | CN(C)C(=O)Nc1ccc(Oc2cccc(C(F)(F)F)c2)c(Cl)c1
136 to 139 °C | COc1cccc(COc2ncc(F)c(N/N=C/c3cccs3)n2)c1
192 to 194 °C | CCOC(=O)c1c(Nc2cccc(SC)c2)n[nH]c1C
187 to 189 °C | CCn1c(-c2c(Cl)cccc2Cl)nc(-c2ccnc(Cl)c2)c1-c1ccc(Cl)cc1
245 to 247 °C | CC(C)Oc1ccc(-c2ccc3c(c2)C=C(C(=O)Nc2ccc(CN(C)C4CCOCC4)cc2)CCS3(=O)=O)cc1
98 to 99 °C | CC1(C)CCC(C)(C)c2cc(CC#Cc3ccc(C(=O)N4CCOCC4)cc3)ccc21
186 to 187 °C | CCCCc1nc2cccc(C(=O)OC)c2n1Cc1ccc(-n2cccc2-c2nnn[nH]2)cc1
130 to 131 °C | CCCCC(Cc1ccc(OCCNC(=O)c2ccc(-c3ccccc3)cc2)cc1)C(=O)O (configuration not stated)
230 °C | O=C1Nc2cccnc2N(C(=O)CCl)c2cc(F)ccc21
102 to 103 °C | CS(=O)(=O)C1CC(=O)N1CC(=O)OCc1ccccc1 (single isomer, unassigned; (+))
49 °C | COC(=O)CCCC#Cc1nc(C(F)(F)F)ccc1N
83 to 84 °C | O=Cc1coc(C(O)c2ccc(Br)cc2)c1 (configuration not stated)

melting point | SMILES
176 to 177 °C | COc1cc(C(=O)N2Cc3ccc(C(=O)NCc4cccc(C(F)(F)F)c4)n3Cc3ccccc32)ccc1-c1ccccc1C
51 °C | CCCCCCCCCc1c(O)nc(-c2ccc(-c3ccc(CCCCC)cc3F)cc2)nc1O
114 °C | CC(C)c1cc2c(cc1C(CC(=O)O)c1ccccc1)OCO2 (configuration not stated)
71 to 75 °C | C=CCn1c(-c2cccnc2)nn(CCCCN2CCN(c3ccccc3OC)CC2)c1=O
170 to 171 °C | CCCOCCOc1cc2c(-c3ccccc3)c(CC(=O)Nc3ccc(Cl)cc3C(F)(F)F)c(=O)oc2cc1Cl
143 °C | c1ccc(Cn2c(NC3CCN(C4CCCCC4)CC3)nc3ccccc32)cc1
145 to 147 °C | O=C(NCCc1ccccc1)Nc1ccc(CN2C(=O)[C@H]3CCC[C@H]3N(C(=O)CN3C(=O)c4ccccc4C3=O)c3ccccc32)cc1 (relative stereo)
95 to 97 °C | CCCCCCCN(CC1(c2ccccc2)CCCC1)C(=O)Nc1c(C(C)C)cccc1C(C)C
265 °C | COc1ccc(N2CCN(c3ccc(NC(N)=S)cc3)CC2)cc1
197 °C | COc1cc(C)c(C=CC(C)=CC=CC(C)=CC(=O)OC2C(OC)OC(CO)C(O)C2O)c(C)c1C (configuration not stated)
244 to 245 °C | Cc1nnc(-c2ccnc(Nc3ccc(S(C)(=O)=O)cc3)c2)o1
62 to 66 °C | CC(=O)C(=O)C(=O)OC(C)(C)C
186 °C | NNC(=O)N(O)C1c2ccccc2Oc2ccccc21
124 to 125 °C | CON=C1CCCc2cc(C(=O)OC)c(C)nc21
92 to 93 °C | CCCC(=O)c1cc(OC)c(O)c([N+](=O)[O-])c1
59.5 to 61 °C | COC(CC[C@](C)(O)[C@@H](/C=C\C=C\c1ccccc1)Sc1ccccc1)OC (racemic)
164 to 166 °C | CC(C)N(CCN1C(=O)/C(=N/NC(=O)NC2CCCCC2)c2ccccc21)C(C)C
144 °C | CCNC(=O)C1(C/C=C/c2ccccc2)c2ccccc2-c2ccccc21
